Test results taken from patent US20210169985A1, “METHODS FOR TREATING GRAM POSITIVE BACTERIAL INFECTION” (INSERM (Institut National de la Santé et de la Recherche …, priority 2018, published 2021).
“Also recorded” adds a separate entry of the source. *1 amine or outer side, *2 acyl side, *3 side chain or, on linkers, in order; H or OH if unused. Where a SMILES comes first, the peptide text is derived from it. Bridges are numbered along the chain shown (N, C = ends). Roman numbers before positions name the chains, in order. [ ]: non-standard residue; d: D form. Actinocin(9to1) = Cc1c2oc3c(C)ccc(C(=O)[*:1])c3nc-2c(C(=O)[*:2])c(N)c1=O; NMeV = CN[C@H](C(=O)O)C(C)C; Sar = CNCC(=O)O

Assays:
[1] = test system: CXCL1 production in keratinocytes; experiment: Cytokine quantification in supernatant of murine primary keratinocytes; assay type: cell-based; conditions: for effect of inhibitor on hepcidin-induced CXCL1 production: murine primary keratinocytes with 3.6 μM hepcidin, inhibitor added 30 minutes before (FIG. 2C); for CXCL1 levels in the cell culture supernatant: 3 hours; for CXCL1 production by keratinocytes: stimulated 1 or 3 hours vs PBS
Method: Keratinocytes were isolated from the skin of 2-day-old WT or Hepc^Δkerat mice, based on modifications from a previously described protocol^8. In brief, dermis were easily separated from epidermis after floating newborn mice skin on freshly thawed cold trypsin 0.25% (thermo fisher 15050065) overnight at 4° C. with the dermis side down. Cells were isolated in stop trypsin medium (DMEM, high glucose, no glutamine, no calcium (thermo fisher 21068028) containing 20% heat inactivated and Chelex (Bio rad 1421253) treated—FBS, 1% GlutaMAXSupplement (thermo fisher 35050061), 1% Sodium Pyruvate (thermo fisher 11360070), 100 U/ml Penicillin, 100 μg/ml Streptomycin (thermo fisher), 2.5 μg/ml Amphotericin B (Gibco)).
Keratinocytes were obtained by epidermis mechanical dissociation through shaking at 350 rpm for 1 hour at 37° C. The resulting cell suspension was filtered through 100 μm filter, centrifuged at 250 g for 10 min at 4° C., plated on fibronectin and bovine collagen I coated tissue culture plate and incubated at 37° C. in a humidified 5% CO2 atmosphere. The cells were cultured in 0.07 mM calcium medium (low Ca^2+) containing EGF (10 ng/ml) and cholera toxin (10^−10 mol/L). Once confluence reached, cells were switched in 1.2 mM calcium medium (high Ca^2+) in order to assure their differentiation. After three days in high Ca′ cells were differentiated and suitable for different experiments.
(§1) Keratinocytes, previously starved of FBS for 1 hour, were treated with 1 or 10 μg/ml hepcidin (Peptide International) and incubated for different time points. In some experiments, inhibitors were added 30 minutes before hepcidin treatment during FBS starving: brefaldin A (sigma B7651), cycloheximide (sigma C7698), actinomycinD (sigma A1410). The cells were lysed with Tri reagent (sigma) while supernatant cytokines were measured with the V-PLEX Proinflammatory Panel1 kit (Meso Scale Discovery), according to the manufacturer's instruction.

GAS NZ131 [2] = experiment: GAS antimicrobial killing kinetics (bactericidal) assay; assay type: cell-based, Group A Streptococcus; conditions: added to the culture medium at 4 μg/ml (FIG. 3B; legend says 32 μM)
Method: (§2) As previously described, 9 GAS NZ131 were grown in Todd Hewitt Broth (THB, Sigma) plus 0.3% yeast extract to early log phase (absorbance at 600 nm, A600=0,2). Bacteria were then diluted in THB to A600=0,001 (≈2×10^5 colony forming units (c.f.u.) m1-1). This bacterial suspension was kept growing overnight at 37° C. in presence of PBS, LL-37, hepcidin (peptide international) or penicillin G (sigma P7794). For antimicrobial killing kinetics, exponential phase GAS (A600=0,4) was exposed to PBS or LL-37 or hepcidin and incubated at 37° C. At different time point serial dilutions of these bacterial suspensions were plated on THA plate for counting surviving c.f.u.

GAS NZ131 [3] = experiment: GAS growth inhibition (bacteriostatic) assay; assay type: cell-based, Group A Streptococcus; conditions: in vitro, overnight growth, hepcidin and LL-37 at the same concentration (FIG. 3A)
Method: as §2

CXCL1 mRNA = CXCL1 mRNA expression by Q-PCR in primary keratinocytes; assay type: cell-based, murine; conditions: WT primary keratinocytes, 1 and 3 hours, 360 nM or 3.6 μM (FIG. 2B)
Method: RNA extraction, reverse transcription and quantitative PCR have been performed as previously described {Zumerle, 2014 #46}. All samples were normalized to the threshold cycle value for cyclophilin-A.
as §1

GAS [4] = experiment: Therapeutic treatment in GAS induced necrotizing soft tissue infection model; assay type: in vivo, C57BL6 mice
Method: (§3) A well-established model of necrotizing soft tissue infection was adapted for this study (^7,^9). In brief, 100 μl of a mid logarithmic growth phase (approximately 10^7 c.f.u.) of GAS was mixed with an equal volume of sterile Cytodex beads (Sigma-Aldrich) and injected subcutaneously into the flank of 8- to 12-week-old WT and Hepc^Δkerat14 male littermates, previously shaved (veet hair removal cream). Weight loss and lesion size of mice were daily estimated. After 96 hours mice were sacrificed, skin necrotic ulcers, spleen, and blood (via retro orbital bleeding) were recovered and homogenized in 1:2 mg/μl of sterile PBS. Serial dilutions of tissue homogenate were stretched on THA plates, in order to enumerate living c.f.u.
For therapeutic treatment C57BL6 mice were infected as described above. One day after infection, animals were subcutaneously injected with PBS (control) or 1 μg of hepcidin (peptide international). Mice were treated again at 48 and 72 hours with 500 ng of hepc-25. After 96 hours mice were sacrificed, spleens were taken, homogenized for c.f.u. enumeration.

GAS [5] = experiment: CXCL1 rescue experiment in GAS-infected Hepc Δkerat mice; assay type: in vivo; conditions: subcutaneous 1 μg/mouse daily, four days after GAS injection
Method: as §3
For rescue experiment WT and Hepc^Δkerat littermates were subcutaneously infected with 10^7 c.f.u. of GAS with mock or 1 μg/mouse of rCXCL1 (R&D system, 1395-KC-025/CF). Mice were intralesionally injected again at 24, 48 and 72 h with mock or 1 μg of rCXCL1.

C[C@@H]1C[C@@H]([C@H](O)CC2CC(=O)NC(=O)C2)C(=O)[C@@H](C)C1 [Cycloheximide, cycloheximide, reference compound]
effect of inhibitor on hepcidin-induced CXCL1 production [1]: significantly reduced

Cc1c2oc3c(C)ccc(C(=O)N[C@@H]4C(=O)N[C@H](C(C)C)C(=O)N5CCC[C@H]5C(=O)N(C)CC(=O)N(C)[C@@H](C(C)C)C(=O)O[C@@H]4C)c3nc-2c(C(=O)N[C@@H]2C(=O)N[C@H](C(C)C)C(=O)N3CCC[C@H]3C(=O)N(C)CC(=O)N(C)[C@@H](C(C)C)C(=O)O[C@@H]2C)c(N)c1=O [actinomycin D, actinomycinD, reference compound] (I: T[dV]P[Sar][NMeV] / II: T[dV]P[Sar][NMeV]; ester I:1-I:C, II:1-II:C; linker I:N-II:N via Actinocin(9to1))
effect of inhibitor on hepcidin-induced CXCL1 production [1]: not

LL-37 [reference compound]
bactericidal activity against GAS (bacterial titers vs control) (GAS NZ131 [2]): significant reduction in bacterial titers | bacteriostatic effect against GAS (inhibition of GAS growth) (GAS NZ131 [3]): able to prevent the growth of the bacteria

hepcidin: mature 25-amino acid form of hepcidin (hepc-25), obtained from Peptide International
bactericidal activity against GAS (bacterial titers vs control) (GAS NZ131 [2]): no effect | CXCL1 expression at the mRNA level (CXCL1 mRNA): did not increase | production of other tested inflammatory cytokines ([1]; murine primary keratinocytes, 360 nM and 3.6 μM hepcidin): not | CXCL1 levels in the cell culture supernatant ([1]; murine primary keratinocytes, 360 nM): 150 pg/mL | CXCL1 levels in the cell culture supernatant ([1]; murine primary keratinocytes, 3.6 μM): 50 pg/mL | CXCL1 production by keratinocytes ([1]; murine primary keratinocytes): dose dependent increase | bacteriostatic effect against GAS (inhibition of GAS growth) (GAS NZ131 [3]): no antimicrobial activity; also recorded: no direct bacteriostatic effect | treated mice with no systemic bacterial dissemination (bacteria in the spleen) (GAS [4]; GAS-infected mice, 96 hours after infection, all control mice disseminated): 7 out of 9 | weight (marker of morbidity) (GAS [4]; GAS-infected mice, sc 1 μg at 24 h then 500 ng at 48 and 72 h, 96 hours, vs mock): did not loose weight | signs of morbidity (rough hair coat, hunched posture) (GAS [4]; GAS-infected mice, sc 1 μg at 24 h then 500 ng at 48 and 72 h, vs mock): didn't present any signs of morbidity | systemic spread of infection (GAS [4]; local injection at the site of infection (FIG. 2F)): prevents systemic spread of infection

mini-hepcidin: murine mini-hepcidin consisting in the 9 N-terminal amino acids of hepcidin (DTNFPICIF; Hepcidin; UniProt Q9EQ21 59-67, looked up, fragment) [reference compound]
CXCL1 production by keratinocytes ([1]; murine primary keratinocytes): not able to trigger CXCL1 production | CXCL1 production by keratinocytes ([1]; murine primary keratinocytes, listed as Mini-hepcidin): does bot promote CXCL1 production

B1: CXCL1: rCXCL1 (R&D system, 1395-KC-025/CF), key neutrophil chemokine (protein, UniProt P12850 25-96, looked up)
Growth-regulated alpha protein: APIANELRCQCLQTMAGIHLKNIQSLKVLPSGPHCTQTEVIATLKNGREACLDPEAPLVQKIVQKMLKGVPK
number of bacteria in skin of Hepc Δkerat mice (GAS [5]): decreased the number of bacteria at the level of WT mice
